Reference: patent publication WO2019242687A1, “1,3-dioxane-4,6-dione compound, and preparation method, pharmaceutical composition, and application thereof” (Shanghai Institute of Materia Medica of CAS, priority 2018, dated 2018)
Like-named read-outs stand apart in the source and are kept apart here.

What was measured:
SIRT1 = molecular target: T1, SIRT1 (Homo sapiens, UniProt Q96EB6); assay: SIRT1 enzyme activity test (deacetylase inhibition); type: biochemical; details: 1 μM SIRT1, 500 μM NAD+, 10 μM substrate peptide
T1 sequence (Q96EB6 1-747): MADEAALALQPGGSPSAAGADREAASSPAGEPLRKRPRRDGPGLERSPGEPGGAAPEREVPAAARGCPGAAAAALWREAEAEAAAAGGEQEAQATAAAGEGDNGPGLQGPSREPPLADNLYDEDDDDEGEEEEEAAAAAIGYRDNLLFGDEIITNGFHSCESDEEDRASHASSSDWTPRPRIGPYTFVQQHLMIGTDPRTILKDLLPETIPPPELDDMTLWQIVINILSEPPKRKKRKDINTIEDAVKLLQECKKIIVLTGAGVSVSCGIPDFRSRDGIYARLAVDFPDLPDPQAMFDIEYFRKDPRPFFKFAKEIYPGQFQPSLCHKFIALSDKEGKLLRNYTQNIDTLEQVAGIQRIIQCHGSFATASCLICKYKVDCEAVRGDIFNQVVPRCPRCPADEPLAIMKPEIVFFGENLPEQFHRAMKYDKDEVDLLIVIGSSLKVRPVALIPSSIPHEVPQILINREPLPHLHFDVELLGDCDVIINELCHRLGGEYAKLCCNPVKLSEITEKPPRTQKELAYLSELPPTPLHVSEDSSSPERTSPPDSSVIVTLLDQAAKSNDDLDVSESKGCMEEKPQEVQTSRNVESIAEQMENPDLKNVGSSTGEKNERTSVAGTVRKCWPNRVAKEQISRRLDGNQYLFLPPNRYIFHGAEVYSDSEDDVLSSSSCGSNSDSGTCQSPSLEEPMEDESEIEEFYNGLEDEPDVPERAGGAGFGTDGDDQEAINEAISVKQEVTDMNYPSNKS

SIRT2 = molecular target: T2, SIRT2 (Homo sapiens, UniProt Q8IXJ6); assay: Inhibition of SIRT2 (as SIRT1 IC50 method)
T2 sequence (Q8IXJ6 1-389): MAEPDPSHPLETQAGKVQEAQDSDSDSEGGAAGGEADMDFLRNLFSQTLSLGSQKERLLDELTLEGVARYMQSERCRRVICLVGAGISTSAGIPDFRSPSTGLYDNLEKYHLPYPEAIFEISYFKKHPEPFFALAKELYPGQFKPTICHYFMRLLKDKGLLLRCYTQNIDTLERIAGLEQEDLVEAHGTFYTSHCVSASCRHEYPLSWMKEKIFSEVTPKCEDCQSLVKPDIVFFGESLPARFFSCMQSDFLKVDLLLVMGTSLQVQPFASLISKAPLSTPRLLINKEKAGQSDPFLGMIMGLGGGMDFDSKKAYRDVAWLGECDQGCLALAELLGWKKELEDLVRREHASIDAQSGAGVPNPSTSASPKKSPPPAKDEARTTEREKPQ

SIRT5 = molecular target: T3, SIRT5 (Homo sapiens, UniProt Q9NXA8); assay: Inhibition of SIRT5 (as SIRT1 IC50 method)
T3 sequence (Q9NXA8 37-310): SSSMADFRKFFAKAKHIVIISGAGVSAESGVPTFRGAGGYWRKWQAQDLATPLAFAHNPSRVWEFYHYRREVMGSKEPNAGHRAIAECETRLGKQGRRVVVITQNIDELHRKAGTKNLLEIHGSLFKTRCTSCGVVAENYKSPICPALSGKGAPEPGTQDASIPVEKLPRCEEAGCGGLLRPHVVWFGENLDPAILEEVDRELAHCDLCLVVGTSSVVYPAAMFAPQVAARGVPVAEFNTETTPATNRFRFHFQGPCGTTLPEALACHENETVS

[1] = test system: p53 acetylation levels in SH-SY5Y human neuroblastoma cells; assay: Effect of compounds on p53 acetylation level in cells (Western blot); type: cell-based; details: ATRA-induced differentiation, compound 10 μM, 2 h, Figure 5
SIRT3 = molecular target: T4, SIRT3 (Homo sapiens, UniProt Q9NTG7); assay: Inhibition of SIRT3 (as SIRT1 IC50 method)
T4 sequence (Q9NTG7 1-399): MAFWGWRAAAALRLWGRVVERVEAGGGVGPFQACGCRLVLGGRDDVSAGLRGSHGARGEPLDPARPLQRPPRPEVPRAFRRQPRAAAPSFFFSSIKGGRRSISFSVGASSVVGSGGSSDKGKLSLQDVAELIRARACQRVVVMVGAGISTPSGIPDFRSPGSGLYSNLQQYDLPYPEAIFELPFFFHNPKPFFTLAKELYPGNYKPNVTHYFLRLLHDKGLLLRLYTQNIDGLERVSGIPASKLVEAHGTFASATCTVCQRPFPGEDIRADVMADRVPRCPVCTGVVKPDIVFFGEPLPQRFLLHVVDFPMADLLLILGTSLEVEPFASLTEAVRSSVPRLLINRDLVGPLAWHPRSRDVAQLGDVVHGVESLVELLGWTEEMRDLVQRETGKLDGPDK

[2] = Table 3, SITR1 [sic], read-out: Inhibition of SIRT1 deacylation (IC50)
[3] = Table 2, 37 °C, 30 min, read-out: IC50

Row | SMILES | IC50 (SIRT1; [2]) | effect on decrease of p53 acetylation level [1] | IC50 (SIRT1; [3]) | also measured
1 | COc1cc(C=C2C(=O)OC(c3ccccc3)OC2=O)cc(Cl)c1O (stereo not drawn) [Compound S10, 5-(3-chloro-4-hydroxy-5-methoxybenzylidene) -2-phenyl-1,3-dioxane-4,6-dione] | 1.9 ± 0.53 µM | 抑制ATRA诱导的SH-SY5Y细胞分化过程中p53乙酰化水平降低 |  | IC50 (SIRT2): 64.4 ± 7.09 µM; IC50 (SIRT5): 32.5 ± 1.15 µM; IC50 (SIRT3): 204 ± 16.2 µM
2 | CC(C)Oc1ccccc1C=C1C(=O)OC(c2ccccc2)OC1=O (stereo not drawn) [Compound S14, 5-(2-isopropoxybenzylidene) -2-phenyl-1,3-dioxane-4,6-dione] |  |  | 14 ± 2.01 µM | 
3 | COc1cc(OC)c(C=C2C(=O)OC(c3ccccc3)OC2=O)cc1Br (stereo not drawn) [Compound S22, 5-(5-bromo-2,4-dimethoxybenzylidene) -2-phenyl-1,3-dioxane-4,6-dione] |  |  | 4.89 ± 0.35 µM | 
4 | O=C1OC(c2ccccc2)OC(=O)C1=Cc1cc(Cl)c(O)c(Cl)c1 (stereo not drawn) [Compound S15, 5-(3,5-dichloro-4-hydroxybenzylidene) -2-phenyl-1,3-dioxane-4,6-dione] | 1.2 ± 0.09 µM | 抑制ATRA诱导的SH-SY5Y细胞分化过程中p53乙酰化水平降低 |  | 
5 | CC1(c2ccccc2)OC(=O)C(=Cc2ccccc2)C(=O)O1 (stereo not drawn) [Compound S8, 5-benzylidene-2-methyl-2-phenyl-1,3-dioxane-4,6-dione] |  |  | > 50 µM | 
6 | COc1cc(C=C2C(=O)OC(C)(c3ccccc3)OC2=O)cc(I)c1O (stereo not drawn) [Compound S2, 5-(4-hydroxy-3-iodo-5-methoxybenzylidene) -2-methyl-2-phenyl-1,3-dioxane-4,6-dione] |  |  | 2.45 ± 0.37 µM | 
7 | O=C1OC(c2ccccc2)OC(=O)C1=Cc1ccc(OCc2ccc3c(c2)OCO3)cc1 (stereo not drawn) [Compound S17, 5-[4-(1,3-Benzodioxolane-5-alkylmethoxy)benzylidene] -2-phenyl-1,3-dioxane-4,6-dione] |  |  | 3.41 ± 0.19 µM | 
8 | COc1cc(C=C2C(=O)OC(c3ccccc3)OC2=O)cc(I)c1O (stereo not drawn) [Compound S6, 5-(4-hydroxy-3-iodo-5-methoxybenzylidene) -2-phenyl-1,3-dioxane-4,6-dione] | 0.89 ± 0.01 µM | 抑制ATRA诱导的SH-SY5Y细胞分化过程中p53乙酰化水平降低 |  | 
9 | O=C(COc1ccc(C=C2C(=O)OC(c3ccccc3)OC2=O)cc1)Nc1ccccc1 (stereo not drawn) [Compound S21, 2-{4-[(4,6-Dioxo-2-phenyl-1,3-dioxane-5-ylbenzylidene)methyl]phenoxy} -N-phenylacetamide] |  |  | 4.51 ± 1.17 µM | 
